Source: EP0196515A1, “Photodynamic inactivation of virus in therapeutic protein compositions” (BAXTER TRAVENOL LABORATORIES, INC., priority 1985, dated 1986)

Legend:
Sindbis = assay: microbe, parasite or virus in culture; format: cell-based; conditions: read-out: logs of marker virus inactivated
[1] = tested on: Vesicular stomatitis virus; assay: microbe, parasite or virus in culture; format: cell-based; conditions: read-out: logs of marker virus inactivated
Herpes Simplex virus = assay: Photodynamic virus inactivation, plaque assay of virus infectivity; format: cell-based; conditions: AHF products; chlorpromazine 1 X 10^-4M; light for less than ten minutes; read-out: logs of marker virus inactivated
[2] = tested on: LAV reverse transcriptase; assay: Photodynamic inactivation of LAV seeded into AHF, reverse transcriptase assay; format: biochemical; conditions: AHF seeded with LAV, Chlorpromazine 1 X 10^-4M, unfiltered Mercury Arc Lamp
Experimental: The following data supports photodynamic inactivation of LAV using indirect methods. AHF was seeded with LAV virus. In the first set of data, Protoporphyrin was added at a concentration of 5 X 10^-6M. The mixture was exposed to light ffrom a 65 watt Super Diazo Blue lamp at a distance of 10 cm. Albumin was added to the samples after inactivation to inhibit any inactivation from extraneous light. The product was lyophilized and subjected to a reverse transcriptase assay.
In the second set of data, LAV was seeded into an AHF composition. Chlorpromazine (1 X 10^-4M) was added as a photosensitize and the mixture was exposed to unfiltered light from an 85 watt high pressure mercury arc lamp at a distance of 10 cm. The product was lyophilized and analyzed for reverse transcriptase activity. Results are reported in counts per minute.

Factor VIII = target: T1, Factor VIII (Homo sapiens, UniProt P00451); assay: Factor VIII C activity, one-stage activated partial thromboplastin time assay (AHF product after photosensitizer and light)
T1 sequence (P00451 20-1332 limits assumed): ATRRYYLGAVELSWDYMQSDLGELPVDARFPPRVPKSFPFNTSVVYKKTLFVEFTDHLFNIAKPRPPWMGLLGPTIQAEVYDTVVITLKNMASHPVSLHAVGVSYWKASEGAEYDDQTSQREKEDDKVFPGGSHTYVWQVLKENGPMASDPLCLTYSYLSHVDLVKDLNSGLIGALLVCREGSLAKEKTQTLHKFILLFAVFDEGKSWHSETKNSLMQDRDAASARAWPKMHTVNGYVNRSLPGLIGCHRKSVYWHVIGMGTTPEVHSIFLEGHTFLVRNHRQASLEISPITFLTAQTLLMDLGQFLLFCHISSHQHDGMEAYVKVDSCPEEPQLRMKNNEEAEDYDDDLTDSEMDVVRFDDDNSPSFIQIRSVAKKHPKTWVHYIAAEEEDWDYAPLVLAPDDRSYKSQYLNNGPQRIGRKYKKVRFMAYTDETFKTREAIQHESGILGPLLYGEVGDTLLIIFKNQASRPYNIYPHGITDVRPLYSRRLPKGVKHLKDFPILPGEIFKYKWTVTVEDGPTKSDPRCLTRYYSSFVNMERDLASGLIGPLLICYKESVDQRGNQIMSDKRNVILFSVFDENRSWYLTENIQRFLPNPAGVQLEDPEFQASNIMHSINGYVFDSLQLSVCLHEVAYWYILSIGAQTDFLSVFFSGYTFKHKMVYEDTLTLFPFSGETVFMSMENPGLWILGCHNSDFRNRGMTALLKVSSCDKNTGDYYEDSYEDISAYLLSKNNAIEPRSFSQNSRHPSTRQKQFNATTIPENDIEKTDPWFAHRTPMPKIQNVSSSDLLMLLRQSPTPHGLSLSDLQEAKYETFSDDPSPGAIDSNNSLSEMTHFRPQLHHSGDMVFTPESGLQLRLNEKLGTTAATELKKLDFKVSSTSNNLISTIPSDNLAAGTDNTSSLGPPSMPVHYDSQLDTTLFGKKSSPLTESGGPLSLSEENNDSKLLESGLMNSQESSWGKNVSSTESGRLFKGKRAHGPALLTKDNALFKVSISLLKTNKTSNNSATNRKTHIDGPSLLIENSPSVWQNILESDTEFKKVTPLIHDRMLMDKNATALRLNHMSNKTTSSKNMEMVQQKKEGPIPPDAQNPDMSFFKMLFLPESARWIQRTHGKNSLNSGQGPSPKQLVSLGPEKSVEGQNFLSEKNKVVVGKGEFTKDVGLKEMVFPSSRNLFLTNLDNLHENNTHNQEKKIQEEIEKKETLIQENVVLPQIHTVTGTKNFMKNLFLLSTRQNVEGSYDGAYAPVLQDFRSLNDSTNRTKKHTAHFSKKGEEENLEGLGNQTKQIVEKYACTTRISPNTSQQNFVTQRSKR
T1 sequence (P00451 1668-2351 limits assumed): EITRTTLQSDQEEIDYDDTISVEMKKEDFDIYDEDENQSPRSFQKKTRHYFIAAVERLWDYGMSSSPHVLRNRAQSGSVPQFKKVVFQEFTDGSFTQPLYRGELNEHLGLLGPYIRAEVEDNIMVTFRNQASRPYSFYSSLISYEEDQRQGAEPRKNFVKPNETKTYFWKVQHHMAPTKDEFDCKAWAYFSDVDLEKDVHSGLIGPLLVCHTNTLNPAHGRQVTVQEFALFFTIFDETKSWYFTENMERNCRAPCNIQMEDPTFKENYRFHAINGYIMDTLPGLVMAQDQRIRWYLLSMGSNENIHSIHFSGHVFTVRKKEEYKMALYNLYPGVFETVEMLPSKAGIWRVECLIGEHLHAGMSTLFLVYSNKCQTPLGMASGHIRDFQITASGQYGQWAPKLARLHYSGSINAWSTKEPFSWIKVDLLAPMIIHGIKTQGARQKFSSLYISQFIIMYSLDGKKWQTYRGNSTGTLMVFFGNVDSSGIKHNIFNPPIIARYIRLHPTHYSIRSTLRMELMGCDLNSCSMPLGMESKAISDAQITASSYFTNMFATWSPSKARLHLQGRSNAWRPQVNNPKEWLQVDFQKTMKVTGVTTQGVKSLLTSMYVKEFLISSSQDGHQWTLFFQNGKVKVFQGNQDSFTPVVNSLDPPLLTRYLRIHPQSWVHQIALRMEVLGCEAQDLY
Excerpt: The mixture was then exposed to light of a defined wavelength for a specified period of time.
Several light sources were used. A U.V. light source derived from a high pressure mercury vapor quartz lamp (85 watts) was employed. This source provided a wide band of light in the 390 to 410 nm range. A filter was used to remove the radiation below 350 nm in wave length. Alternatively a super diazo blue fluorescent lamp was used which has a peak emission near the absorption peak of the porphyrins employed.
Factor VIII C and Factor IX activity was determined by the one-stage activated partial thromboplastin time assay using Kaolin as an activator and human Factor VIII or Factor IX deficient plasma as a substrate. […] It involves the addition of the test sample to Factor VIII or Factor IX deficient plasma and measuring the degree of correction of the clotting time. This is then compared to a curve constructed using various dilutions of a lyophilized concentrate (reference) of known potency. […] Both sample and refernce are prediluted in Factor VIII deficient substrate plasma to an approximate activity of 1 U/mL. From the percentage of the reference, the potency can be estimated.

[3] = Chlorpromazine 1x10^-4M, Mercury Arc Lamp, Sensitizer added-10 min light
[4] = Chlorpromazine 1x10^-5M, Mercury Arc Lamp, Sensitizer added-10 min light
[5] = Chlorpromazine 1x10^-5M, Mercury Arc Lamp, Sensitizer added-20 min light

Compound: CN(C)CCCN1c2ccccc2Sc2ccc(Cl)cc21 [Chlorpromazine, 10-(3-dimethyl-aminopropyl)-2-chlorphenothiazine]
- log reduction at 100 µM (Sindbis): > 5
- log reduction at 100 µM [1]: > 5
- log reduction at 100 µM (Herpes Simplex virus): > 5
- C.P.M. (reverse transcriptase activity) ([2]; exposure 0 minutes): 36,192 C.P.M.
- C.P.M. (reverse transcriptase activity) ([2]; exposure 5 minutes): 27,100 C.P.M.
- C.P.M. (reverse transcriptase activity) ([2]; exposure 10 minutes): 6,814 C.P.M.
- C.P.M. (reverse transcriptase activity) ([2]; exposure 20 minutes): 4,742 C.P.M.
- % Change (Ref: Bulk), Percent change in Factor VIII coagulant activity (Factor VIII; [3]): -29%
- Units/ml (Factor VIII; [3]): 20.0 Units/ml
- Units/ml (Factor VIII; Chlorpromazine 1x10^-4M, Sensitizer added-no light): 27.3 Units/ml
- % Change (Ref: Bulk), Percent change in Factor VIII coagulant activity (Factor VIII; [4]): -23%
- Units/ml (Factor VIII; [4]): 24.8 Units/ml
- % Change (Ref: Bulk), Percent change in Factor VIII coagulant activity (Factor VIII; [5]): -43%
- Units/ml (Factor VIII; [5]): 18.2 Units/ml
- Units/ml (Factor VIII; Chlorpromazine 1x10^-5M, Sensitizer added-no light): 30.1 Units/ml
